Test results reported in patent US20260193647A1, “MIRNA-BASED CANCER THERAPY WITH A TUMOR-NAVIGATING PEPTIDE” (The Board of Trustees of the Universities of Illinois, priority 2022, published 2026).

Legend:
[1] = system: astrocytes; assay: Annexin V/PI flow cytometric apoptosis assay, astrocytes; format: cell-based, human; conditions: 10 nM, 24 h
Procedure: (§1) Cells were seeded into 10-cm dishes and cultured overnight. Then, the cells were treated with 10 nM antisense miR-20a alone, p28 alone or AmiR20-p28 for 24 hr. Cells were washed with 1×PBS, detached with TrypleE (Invitrogen). and collected by centrifugation. Cells were washed and resuspended with 1× Annexin binding buffer (Life Technologies, catalog #V13242), and the cell density was maintained at 10^6 cells/ml. Subsequently, 5 μl of Annexin-V was added to 100 μl of the cell suspension, and the mixture was incubated for 15 min at room temperature. The cells were washed and incubated with 5 μl of PI for an additional 15 min on ice, washed and resuspended in 200 μl of buffer. Cells without treatment were used as controls. After washing, cells were subjected to flow cytometry (Gallios flow cytometer) and analyzed with Kaluza software to give the proportions of dead (top left quadrant), late apoptotic (top right quadrant), early apoptotic (bottom right quadrant) and viable (bottom left quadrant) cells.

[2] = system: aGBM (LN-229) cells; assay: Annexin V/PI flow cytometric apoptosis assay, aGBM (LN-229); format: cell-based, human; conditions: 10 nM, 24 h
Procedure: as §1

[3] = system: 3D Human Blood Brain Barrier Model
Procedure: Permeability experiments were carried out in a 3D Human Blood Brain Barrier Model kit (Alphabioregen, Catalog #EP010). The BBB kits were activated following the manufacturer's instructions. Briefly, the BBB model was thawed using BBB growth medium (#BBB-GM001) and incubated overnight with fresh BBB growth medium. The model was incubated with Endo-Neuro-Pharmaceuticals medium (#NMBBB001) for 3 days. AmiR20-p28 was prepared in assay buffer (Dulbecco's PBS containing CaCl2 and MgCl4, 100 mM HEPES, pH 7.0, 25 mM D-glucose). The permeability of AmiR20-p28 was measured in two directions: apical to basolateral (A-B) and basolateral to apical (B-A). The apical side represented the blood, and the basolateral side represented the brain tissue. For transport, the inserts from the BBB wells were transferred to another well containing prewarmed assay buffer. Depending on the direction, the medium in the donor compartment of the BBB model was replaced with AmiR20-p28. The plate was incubated for 30 min at 37° C. Samples were then collected from the donor and acceptor compartments and analyzed by real-time PCR. The concentrations of AmiR20-p28 in the compartments were calculated based on a standard curve developed with AmiR20-p28 at 1, 10, 100 and 1,000 nM and its relative Ct value obtained from real-time PCR. […]

[4] = system: miR-20a; assay: miR-20a expression levels by stem loop qPCR in treated cells; format: cell-based, human; conditions: 10 nM, 24 hr
From the text: (§2) Micro RNA enriched fraction was extracted using the miRNeasy Mini Kit (Qiagen, Catalog #217004) following the manufacturer's instructions. Stem loop real-time qPCR was used to analyze miRNA expression. We designed miR-20a stem loop RT primers and amplification primers according to a previously described method 79. cDNA was synthesized from extracted RNA using unique stem loop RT primers. The sequence of the stem loop primer for miR-20a was 5′-[…]-3′ (SEQ ID NO:7). Reverse transcriptase reactions contained the following reagents: 10 ng of RNA sample, 60 nM stem-loop RT primer, 1×RT buffer, 0.25 mM dNTP, and 4 U/μl reverse transcriptase. Reactions were performed by incubation at 16° C. for 30 min, 42° C. for 30 min and 85° C. for 5 min. Real-time PCR (7300 Real time PCR Systems, Applied Biosystems, CA) was performed using the specific forward primer for miR-20a (5′-[…]-3′ (SEQ ID NO:8)) and a universal reverse primer (5′-GTGCA GGGTC CGAGGT-3′ (SEQ ID NO:9)). The 20-μl PCR mixture included 1×SYBR Premix (Invitrogen), 2 μl of RT products and each forward and reverse primer at 10 nM. Reactions were performed by incubation in a 96-well plate at 95° C. for 30 sec, followed by 35 cycles of 95° C. for 30 sec and 60° C. for 30 sec. U6 was used as an internal control to normalize the level of target miRNAs. The results were verified by performing PCR using M13 modified forward and reverse primers specific to stem loop sequence. The PCR products were visualized in 2% agarose gels and DNA-sequence was confirmed. Human tumor and serum samples were obtained from patients who had signed informed consent and the institutional review board approval was obtained in Pediatric Brain Tumor Consortium (PBTC-041) participating sites.

[5] = system: miR-20a; assay: Circulating miR-20a in sera of treated mice; format: in vivo; conditions: early-phase treatment group, 1 mg/kg; vs tumor-free mice (P=0.78)
From the text: as §2, with “The results were verified by performing PCR using M13 modified forward and reverse primers specific to stem loop sequence. The PCR products were visualized in 2% agarose gels and DNA-sequence was confirmed. Human tumor and serum samples were obtained from patients who had signed informed consent and the institutional review board approval was obtained in Pediatric Brain Tumor Consortium (PBTC-041) participating sites.” left out

[6] = system: SJ-GBM2 cells; conditions: read-out: IC50 (cell viability); 24 hr
Procedure: Cell viability was evaluated by a CCK-8 assay (Dojindo, Japan). Cells were seeded at a density of 4,000 cells per well in 100 μl of growth medium in 96-well plates and grown overnight. Then, the cells were exposed to antisense miR-20a alone, p28 alone or negative control or AmiR20-p28 over a range of concentrations and incubated for 24 hr. According to the manufacturer's instructions, 10 μl of CCK-8 solution was added to each well, followed by incubation for 1 hr at 37° C. The absorbance at 450 nm was determined by a multiplate reader.
Cell viability (%)=Abs(sample)−Abs(blank)/Abs(no treatment)−Abs(blank)×100

[7] = system: CHLA-200 cells; assay: Annexin V/PI flow cytometric apoptosis assay, CHLA-200; format: cell-based, human; conditions: 10 nM, 24 h
Procedure: as §1

Substance: AmiR20-p28: BBB-permeable tumor-navigating CPP p28 (Cys-p28) covalently linked to 2′ O-methyl antisense miR-20a (5′-maleimide)
- apoptotic cells after treatment [1]: 0.5%
- apoptotic cells after treatment [2]: 6.7%
- efflux Papp (B-A) [3]: 0.95 ×10⁻⁶ cm/s
- influx Papp (A-B) [3]: 4.39 ×10⁻⁶ cm/s
- miR-20a expression levels reduced by ([4]; CHLA-200 cells): 96%
- miR-20a expression levels reduced by ([4]; LN-229 cells): 84%
- miR-20a expression levels reduced by ([4]; SJ-GBM2 cells): 94%
- miR-20a levels ([4]; normal human astrocytes): not significantly altered
- serum miR-20a level [5]: not significantly different from the basal level in the tumor-free mice
- IC50 [6]: 8 nM
- apoptotic cells increased by [7]: 14%
